From ChEMBL document CHEMBL5365457, “Selective HDAC3 Inhibitors with Potent In Vivo Antitumor Efficacy against Triple-Negative Breast Cancer” (J Med Chem, 2023)
Active and inactive are the calls of the source. The calls are words filed in the database; no cut-off is given here.

Legend:
4T1 [1] = assay: Antitumor activity against mouse 4T1 cells implanted in BALB/c mouse assessed as tumor growth inhibition at 15 mg/kg, ip measured on day 14; format: functional; details: 4T1, 336 h, time 14 day, read-out: TGI
MDA-MB-453 = assay: Cytotoxicity against human MDA-MB-453 cells assessed as inhibition of cell growth incubated for 72 hrs by MTT assay; format: functional, cell-based; details: MDA-MB-453, 72 h
MDA-MB-231 = assay: Cytotoxicity against wild type human MDA-MB-231 cells assessed as reduction in cell viability incubated for 72 hrs in presence of oxaliplatin by MTT assay; format: functional, cell-based; details: MDA-MB-231, 72 h
4T1 [2] = assay: Cell cycle arrest in mouse 4T1 cells assessed as accumulation of cells at G2/M phase at 2.75 uM incubated for 72 hrs by flow cytometry; format: functional
[3] = target: T1, Histone deacetylase 3 (Mus musculus) (UniProt O88895); assay: Inhibition of HDAC3 in mouse 4T1 cells assessed as increase in acetylation of H3K9 level at 1 uM incubated for 72 hrs by western blot analysis; format: cell-based
T1 sequence (whole entry): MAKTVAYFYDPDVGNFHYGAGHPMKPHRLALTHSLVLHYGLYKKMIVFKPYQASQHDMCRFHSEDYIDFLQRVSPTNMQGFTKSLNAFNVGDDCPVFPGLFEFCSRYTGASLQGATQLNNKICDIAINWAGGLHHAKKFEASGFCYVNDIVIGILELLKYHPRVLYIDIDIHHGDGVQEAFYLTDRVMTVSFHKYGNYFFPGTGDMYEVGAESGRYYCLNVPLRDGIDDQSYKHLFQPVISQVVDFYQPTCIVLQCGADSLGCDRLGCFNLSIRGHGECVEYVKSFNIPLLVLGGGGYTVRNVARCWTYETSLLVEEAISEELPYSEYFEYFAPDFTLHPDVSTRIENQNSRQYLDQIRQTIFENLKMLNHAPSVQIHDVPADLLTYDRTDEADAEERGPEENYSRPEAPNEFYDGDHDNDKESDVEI

[4] = Tmax in Wistar rat at 5 mg/kg, ip measured upto 24 hrs by HPLC analysis; format: ADME, organism-based; details: in vivo
[5] = Toxicity in BALB/c mouse implanted with mouse 4T1 cells assessed as neutrophilic infiltration in liver at 5 to 15 mg/kg, ip measured after 21 days; format: organism-based; details: in vivo, 504 h, dose 5-15 mg/kg, time 21 day
[6] = Selectivity ratio of IC50 for cytotoxicity against human HCEC cells assessed as inhibition of cell growth to IC50 for cytotoxicity against human MDA-MB-231 cells assessed as inhibition of cell growth; format: toxicity, cell-based; details: HCEC cells versus MDA-MB-231 cells, read-out: Ratio IC50
[7] = Toxicity in BALB/c mouse implanted with mouse 4T1 cells assessed as spleen damage at 5 to 15 mg/kg, ip measured after 21 days by H and E staining based assay; format: organism-based; details: in vivo, 504 h, dose 5-15 mg/kg, time 21 day
[8] = AUC (0 to t) in Wistar rat at 5 mg/kg, ip measured upto 24 hrs by HPLC analysis; format: ADME, organism-based; design: dose 5 mg/kg, time < 24 hrs, route ip; details: in vivo
4T1 [9] = assay: Antitumor activity against mouse 4T1 cells implanted in BALB/c mouse assessed as upregulation of caspase-3 level in tumor at 5 to 15 mg/kg, ip by Western blot analysis; format: functional, organism-based; details: dose 5-15 mg/kg
[10] = Apparent oral clearance in Wistar rat at 5 mg/kg, ip measured upto 24 hrs by HPLC analysis; format: ADME, organism-based; details: in vivo
4T1 [11] = assay: Induction of apoptosis in mouse 4T1 cells assessed as increase cytochrome c level by Western blot analysis; format: functional, cell-based; details: dose 1.0 µM
Histone deacetylase 2 = Histone deacetylase 2 (Homo sapiens, UniProt Q92769); assay: Inhibition of human recombinant HDAC2 incubated for 30 mins by fluorescence based microplate analysis
Chain of Histone deacetylase 2 (Q92769 whole entry): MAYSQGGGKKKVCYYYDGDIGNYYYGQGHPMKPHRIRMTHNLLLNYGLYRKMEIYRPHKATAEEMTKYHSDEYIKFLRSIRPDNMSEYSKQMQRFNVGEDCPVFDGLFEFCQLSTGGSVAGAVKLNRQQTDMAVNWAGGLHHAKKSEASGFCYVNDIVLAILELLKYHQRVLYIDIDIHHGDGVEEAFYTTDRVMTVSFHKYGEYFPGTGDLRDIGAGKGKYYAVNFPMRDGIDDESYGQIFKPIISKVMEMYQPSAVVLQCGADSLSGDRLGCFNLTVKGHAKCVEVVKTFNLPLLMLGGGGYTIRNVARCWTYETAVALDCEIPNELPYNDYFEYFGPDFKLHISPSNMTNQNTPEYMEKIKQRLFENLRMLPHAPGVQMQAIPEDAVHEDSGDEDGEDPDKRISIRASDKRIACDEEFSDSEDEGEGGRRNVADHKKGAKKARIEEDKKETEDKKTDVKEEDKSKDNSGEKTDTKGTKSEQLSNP

4T1 [12] = assay: In-vivo inhibition of HDAC3 in ip dosed BALB/c mouse implanted with mouse 4T1 cells assessed as hyperacetylation of H3K9 level by Western blot analysis; format: functional, organism-based; details: dose 5-15 mg/kg
4T1 [13] = assay: Induction of apoptosis in mouse 4T1 cells at 110 nM incubated for 72 hrs by annexin/PI staining based flow cytometry analysis (reference value: 1.35%); format: functional
[14] = Toxicity in BALB/c mouse implanted with mouse 4T1 cells assessed as effect on cell size in heart at 5 to 15 mg/kg, ip measured after 21 days by H and E staining based assay; format: organism-based; details: in vivo, 504 h, dose 5-15 mg/kg, time 21 day
4T1 [15] = assay: Antitumor activity against mouse 4T1 cells implanted in BALB/c mouse assessed as reduction in lung metastasis at 5 to 15 mg/kg, ip measured for 7 days by H and E staining based assay; format: functional; design: scale not given: the % may be the effect or the level left; details: dose 5-15 mg/kg, time 7 day
[16] = Toxicity in BALB/c mouse implanted with mouse 4T1 cells assessed as neutrophilic infiltration in kidney at 5 to 15 mg/kg, ip measured after 21 days; format: organism-based; details: in vivo, 504 h, dose 5-15 mg/kg, time 21 day
Histone deacetylase 3 = Histone deacetylase 3 (Homo sapiens, UniProt O15379); assay: Inhibition of human recombinant HDAC3 incubated for 15 mins by fluorescence based microplate analysis
Chain of Histone deacetylase 3 (O15379 whole entry): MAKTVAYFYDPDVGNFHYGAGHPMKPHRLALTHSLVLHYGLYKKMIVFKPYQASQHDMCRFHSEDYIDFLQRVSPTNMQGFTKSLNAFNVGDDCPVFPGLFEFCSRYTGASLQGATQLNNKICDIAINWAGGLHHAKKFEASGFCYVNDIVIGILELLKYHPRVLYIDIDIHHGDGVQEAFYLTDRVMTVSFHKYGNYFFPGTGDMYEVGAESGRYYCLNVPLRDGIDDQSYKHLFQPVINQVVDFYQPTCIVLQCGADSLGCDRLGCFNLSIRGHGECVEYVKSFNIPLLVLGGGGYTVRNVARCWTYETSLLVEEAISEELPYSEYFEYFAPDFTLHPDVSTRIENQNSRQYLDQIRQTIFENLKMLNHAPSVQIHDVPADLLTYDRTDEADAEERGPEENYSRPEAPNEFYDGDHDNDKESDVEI

[17] = Selectivity ratio of IC50 for cytotoxicity against human HCEC cells assessed as inhibition of cell growth to IC50 for cytotoxicity against human MCF7 cells assessed as inhibition of cell growth; format: toxicity, cell-based; details: HCEC cells versus MCF7 cells, read-out: Ratio IC50
4T1 [18] = assay: Induction of apoptosis in mouse 4T1 cells assessed as increase in cleaved caspase-3 level by Western blot analysis; format: functional, cell-based; details: dose 1.0 µM
Histone deacetylase 4 = Histone deacetylase 4 (Homo sapiens, UniProt P56524); assay: Inhibition of HDAC4 (unknown origin) incubated for 30 mins by fluorescence based microplate analysis
Chain of Histone deacetylase 4 (P56524 whole entry): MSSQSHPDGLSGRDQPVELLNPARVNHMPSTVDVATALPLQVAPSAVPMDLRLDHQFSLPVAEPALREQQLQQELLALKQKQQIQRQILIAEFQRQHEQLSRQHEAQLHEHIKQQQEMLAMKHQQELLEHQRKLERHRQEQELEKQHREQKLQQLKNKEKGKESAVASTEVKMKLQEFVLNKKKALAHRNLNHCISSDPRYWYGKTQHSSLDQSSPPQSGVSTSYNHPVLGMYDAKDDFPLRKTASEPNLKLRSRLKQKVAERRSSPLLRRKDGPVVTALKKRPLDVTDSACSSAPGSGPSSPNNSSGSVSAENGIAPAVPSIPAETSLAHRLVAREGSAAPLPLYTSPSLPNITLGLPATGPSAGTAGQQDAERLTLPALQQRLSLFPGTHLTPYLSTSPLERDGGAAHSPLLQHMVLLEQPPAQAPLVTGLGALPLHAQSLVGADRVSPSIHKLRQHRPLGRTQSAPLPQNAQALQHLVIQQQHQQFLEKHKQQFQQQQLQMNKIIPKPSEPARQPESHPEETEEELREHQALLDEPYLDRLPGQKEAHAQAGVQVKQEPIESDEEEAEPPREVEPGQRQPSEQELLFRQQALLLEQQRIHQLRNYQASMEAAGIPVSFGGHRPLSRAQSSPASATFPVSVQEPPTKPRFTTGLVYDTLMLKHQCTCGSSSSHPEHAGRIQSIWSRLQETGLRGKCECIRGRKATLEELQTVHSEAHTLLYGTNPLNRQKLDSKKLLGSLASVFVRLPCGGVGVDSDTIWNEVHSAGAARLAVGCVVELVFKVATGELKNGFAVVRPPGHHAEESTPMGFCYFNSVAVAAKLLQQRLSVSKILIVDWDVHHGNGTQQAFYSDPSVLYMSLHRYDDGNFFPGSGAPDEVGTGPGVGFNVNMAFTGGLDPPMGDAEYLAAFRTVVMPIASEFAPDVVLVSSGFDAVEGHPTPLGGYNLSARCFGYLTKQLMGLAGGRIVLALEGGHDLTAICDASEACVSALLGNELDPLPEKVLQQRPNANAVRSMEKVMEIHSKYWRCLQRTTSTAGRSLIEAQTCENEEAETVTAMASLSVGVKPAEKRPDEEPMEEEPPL

[19] = Toxicity in BALB/c mouse implanted with mouse 4T1 cells assessed as neutrophilic infiltration in spleen at 5 to 15 mg/kg, ip measured after 21 days; format: organism-based; details: in vivo, 504 h, dose 5-15 mg/kg, time 21 day
[20] = Toxicity in BALB/c mouse implanted with mouse 4T1 cells assessed as effect on cell shape in liver at 5 to 15 mg/kg, ip measured after 21 days by H and E staining based assay; format: organism-based; details: in vivo, 504 h, dose 5-15 mg/kg, time 21 day
4T1 [21] = assay: Antitumor activity against mouse 4T1 cells implanted in BALB/c mouse assessed as reduction in lung metastasis at 5 to 15 mg/kg, ip measured for 7 days by fluorescence based assay; format: functional, organism-based; details: dose 5-15 mg/kg, time 7.0 day
4T1 [22] = assay: Antitumor activity against mouse 4T1 cells implanted in BALB/c mouse assessed as tumor growth inhibition at 5 mg/kg, ip measured on day 7; format: functional; details: 4T1, 168 h, time 7 day, read-out: TGI
[23] = Selectivity ratio of IC50 for cytotoxicity against human MCF-10A cells assessed as inhibition of cell growth to IC50 for cytotoxicity against human MCF7 cells assessed as inhibition of cell growth; format: toxicity, cell-based; details: MCF-10A cells versus MCF7 cells, read-out: Ratio IC50
MCF7 = assay: Cytotoxicity against human MCF7 cells assessed as inhibition of cell growth incubated for 72 hrs by MTT assay; format: functional, cell-based; details: MCF7, 72 h
[24] = Cytotoxicity against Oxaliplatin-resistant human MDA-MB-231 cell assessed as reduction in cell viability incubated for 72 hrs in presence of oxaliplatin by MTT assay; format: functional, cell-based; details: Oxaliplatin-resistant MDA-MB-231 cell
4T1 [25] = assay: In-vivo inhibition of HDAC3 in BALB/c mouse implanted with mouse 4T1 cells assessed as increase in acetylation of SMC3 level at 5 to 15 mg/kg, ip by Western blot analysis; format: functional, organism-based; details: dose 5-15 mg/kg

CCCNNC(=O)c1cnc(NCc2ccc(OC)cc2)cn1
inhibition in vivo at 15 mg/kg (4T1 [1]): 97.3% | IC50 (MDA-MB-453): 1.72 µM | IC50 (MDA-MB-231): 0.403 µM | Activity (4T1 [2]): 63.4% | inhibition [3]: Active | Tmax [4]: 2 h | Activity [5]: Non-Toxic | selectivity ratio [6]: 286 | Activity [7]: Non-Toxic | AUC(0-t) at 24 h [8]: 4050 ng·h/mL | Activity (4T1 [9]): Active | CL/F [10]: 1.15 (mg/kg)/(ug/ml).hr | Activity (4T1 [11]): Dose-Dependent Effect | IC50 (Histone deacetylase 2): 1.7 µM | inhibition (4T1 [12]): Dose-Dependent Effect | Activity (4T1 [13]): 36.8% | Activity [14]: Non-Toxic | Activity (4T1 [15]): ~90% | Activity [16]: Non-Toxic | IC50 (Histone deacetylase 3): 0.014 µM | selectivity ratio [17]: 286 | Activity (4T1 [18]): Dose-Dependent Effect | IC50 (Histone deacetylase 4): > 20 µM | Activity [19]: Non-Toxic | Activity [20]: Non-Toxic | Activity (4T1 [21]): Active | inhibition in vivo at 5 mg/kg (4T1 [22]): 76.2% | selectivity ratio [23]: 385 | IC50 (MCF7): 0.95 µM | IC50 [24]: 0.447 µM | inhibition (4T1 [25]): Active
